Assay type in all cases: cell-based
One assay relates to NALM6. The assay is described as follows: Cytotoxicity, CellTiter-Glo assay, NALM6 (B-ALL). The note with it: Homo sapiens, NALM-6; NALM6 (B cell acute lymphocytic leukemia) cells; read-out: Growth inhibition GI50. The method, then:
(§1) The cytotoxic activities of 1 and 6–8 against adherent cells and suspension cells were conducted by SRB (sulforhodamine B) assay and CellTiter-Glo assay, respectively, as described earlier. The compounds were dissolved and serially diluted in dimethyl sulfoxide. GraphPad Prism 8 (GraphPad Software Inc., San Diego, CA, USA) was used to determine GI50 values. Cancer and normal cell lines were purchased from the Japanese Cancer Research Resources Bank (JCRB) (NUGC-3, JCRB Cell Bank/Cat. # JCRB0822), the DSMZ-German Collection of Microorganisms and Cell Cultures (RPMI-8402, DSMZ/Cat # ACC 290; WSU-DLCL2, DSMZ/Cat # ACC 575), and the American Type Culture Collection (ATCC) (PC-3, ATCC/Cat. # CRL-1435; MDA-MB-231, ATCC/Cat. # HTB-26; ACHN, ATCC/Cat. # CRL-1611; NCI-H23, ATCC/Cat. # CRL-5800; HCT-15, ATCC/Cat. # CCL-225; HL-60, ATCC/Cat. # CCL-240; Raji, ATCC/Cat # CCL-86; K562, ATCC/Cat # CCL-243; NALM6, ATCC/Cat # CRL-3273; U266, ATCC/Cat # TIB-196); RPMI-1788, ATCC/Cat # TIB-156). Cells were cultured in Dulbecco’s Modified Eagles medium (ACHN, MDA-MB-231), RPMI-1640 medium (HCT-15, PC-3, NUGC-3, NCI-H23, Raji, NALM6, U266, WSU-DLCL2, RPMI-1788) or Improved Minimum Essential Medium (K562, HL-60), supplemented with fetal bovine serum and penicillin-streptomycin.
For orientation: In ATP-based viability assays light output follows the ATP content of the culture.

The subject of a further assay is K562. The assay is described as follows: Cytotoxicity, CellTiter-Glo assay, K562 (CML). The note with it: Homo sapiens; K562 (chronic myelogenous leukemia) cells; read-out: Growth inhibition GI50. As for the experimental part: as §1
Another assay relates to HL-60. Briefly: Cytotoxicity, CellTiter-Glo assay, HL-60 (AML). The following applies: Homo sapiens; HL-60 (acute myelogenous leukemia) cells; read-out: Growth inhibition GI50. The method, then:
as §1

A further assay has as its system NCI-H23. The assay is described as follows: Cytotoxicity, SRB assay, NCI-H23 (lung). The note with it: Homo sapiens; NCI-H23 (lung) cells; read-out: Growth inhibition GI50. As for the experimental part:
as §1
On the technique in general: The SRB assay estimates cell density from bound dye.

In the next assay the test system is RPMI-1788. The assay is described as follows: Cytotoxicity, CellTiter-Glo assay, normal RPMI-1788 (B lymphocytes). The note with it: RPMI-1788 (normal B lymphocytes) cell line; read-out: Growth inhibition GI50. The method, then:
as §1

The next assay has as its system PC-3. Briefly: Cytotoxicity, SRB assay, PC-3 (prostate). The following applies: Homo sapiens; PC-3 (prostate) cells; read-out: Growth inhibition GI50. The method, then:
as §1

A further assay concerns ACHN. The assay is described as follows: Cytotoxicity, SRB assay, ACHN (renal). The following applies: Homo sapiens; ACHN (renal) cells; read-out: Growth inhibition GI50. The method, then:
as §1

The test system of the next assay is RPMI-8402. Briefly: Cytotoxicity, CellTiter-Glo assay, RPMI-8402 (T-ALL). The note with it: Homo sapiens; RPMI-8402 (T cell acute lymphocytic leukemia) cells; read-out: Growth inhibition GI50. As for the experimental part: as §1
In the next assay the test system is NUGC-3. Briefly: Cytotoxicity, SRB assay, NUGC-3 (stomach). The following applies: Homo sapiens; NUGC-3 (stomach) cells; read-out: Growth inhibition GI50. As for the experimental part: as §1
The subject of the next assay is WSU-DLCL2. Briefly: Cytotoxicity, CellTiter-Glo assay, WSU-DLCL2 (DLBCL). The note with it: Homo sapiens, WSUDLCL2; WSU-DLCL2 (diffuse large B cell lymphoma) cells; read-out: Growth inhibition GI50. As for the experimental part:
as §1

In a further assay the test system is HCT-15. The assay is described as follows: Cytotoxicity, SRB assay, HCT-15 (colon). The following applies: Homo sapiens; HCT-15 (colon) cells; read-out: Growth inhibition GI50. As for the experimental part: as §1
Another assay relates to MDA-MB-231. The assay is described as follows: Cytotoxicity, SRB assay, MDA-MB-231 (breast). The following applies: Homo sapiens; MDA-MB-231 (breast) cells; read-out: Growth inhibition GI50. The method, then:
as §1

The test system of another assay is U266. Briefly: Cytotoxicity, CellTiter-Glo assay, U266 (multiple myeloma). The note with it: Homo sapiens, U-266; U266 (multiple myeloma) cells; read-out: Growth inhibition GI50. The method, then:
as §1

The test system of another assay is Raji. The assay is described as follows: Cytotoxicity, CellTiter-Glo assay, Raji (Burkitt's lymphoma). The following applies: Homo sapiens; Raji (Burkitt's lymphoma) cells; read-out: Growth inhibition GI50. As for the experimental part: as §1
Assay [1] concerns all the tested cell lines. Briefly: Cytotoxicity against the whole panel (one normal, six solid, seven blood cancer cell lines). The note with it: span over one normal, six solid and seven blood cancer cell lines; read-out: GI50 across all the tested cell lines. The method, then:
as §1

A further assay relates to solid cancer cells. Briefly: Cytotoxicity against solid cancer cells (SRB assay). The following applies: span over solid cancer cell lines. As for the experimental part: as §1

Usually GI50 stands for the concentration giving 50% growth inhibition. As to `COc1cccc2c1C(=O)c1c(O)c3c(c(O)c1C2=O)C[C@@](O)(C(=O)CO)C[C@@H]3O[C@H]1C[C@H](N)[C@H](O)[C@H](C)O1` [Adr., Adriamycin, reference compound], the GI50 with NALM6 was found to be 0.002 µM; in the assay with K562, 0.057 µM; in the assay with HL-60, 0.021 µM; in the assay on NCI-H23, 0.151 µM; in the assay on RPMI-1788, 0.014 µM; in the assay on PC-3 it was 0.144 µM. The GI50 in the assay with ACHN was determined as 0.168 µM; in the assay on RPMI-8402, 0.014 µM; in the assay on NUGC-3, 0.136 µM; in the assay with WSU-DLCL2 it was 0.002 µM; in the assay on HCT-15, 0.137 µM; in the assay on MDA-MB-231, 0.159 µM. Also, the concentration for 50% growth inhibition (GI50) was found to be 0.034 µM in the assay on U266 and 0.003 µM in the assay with Raji.
`CC(=CC1C(=O)OC(C(C)C(O)C(C)C(O)C(C)C=CC=C(C)C(=O)NC2=CC(=O)c3cc(O)c(C)c(O)c3C2=O)C(C)C1O)C(=O)O` (centres unmarked) [Compound 1, salinisporamycin C]: the GI50 in the assay with NALM6 came to 4.28 µM; with K562, 7.17 µM; with HL-60, 9.96 µM; with NCI-H23 it was 8.05 µM; in the assay on RPMI-1788, 8.47 µM; in the assay with PC-3, 8.46 µM. In addition, the GI50 in the assay with ACHN was 8.45 µM; in the assay on RPMI-8402, 4.75 µM; in assay [1], 2.36 to 9.96 µM; with NUGC-3, 7.41 µM; in the assay on WSU-DLCL2, 2.36 µM; with HCT-15 it was 9.25 µM. For the same compound, the GI50 came to 8.79 µM in the assay with MDA-MB-231, 2.63 µM in the assay with U266 and 5.37 µM in the assay on Raji.
Consider `CC1=CC=CC(C)C(O)C(C)C(O)C(C)C(O)C(C)C(O)C=COC2(C)Oc3c(C)cc4c(O)c(cc(OC(=O)CO)c4c3C2=O)NC1=O` (centres unmarked) [Compound 6, 8-deoxy-25-desacetyl-27-demethyl-rifamycin L], for which the 50% growth inhibitory concentration (GI50) in the assay on NALM6 was 4.76 µM; in the assay with K562 it was 9.53 µM; in the assay with HL-60 it was 4.79 µM; in the assay with NCI-H23 it was 21.8 µM; with solid cancer cells, 21.8 to 29.8 µM; with RPMI-1788, 4.93 µM. The concentration for 50% growth inhibition (GI50) in the assay with PC-3 was 26.6 µM; in the assay on ACHN, more than 30 µM; with RPMI-8402 it was 2.45 µM; in the assay with NUGC-3 it was 29.8 µM; with WSU-DLCL2 it was 5.4 µM; in the assay on HCT-15 it was 24.2 µM. In addition, the GI50 was more than 30 µM in the assay with MDA-MB-231, 2.3 µM in the assay on U266 and 12.1 µM with Raji.
As to `CC(=O)CC1OC(C(C)C(O)C(C)C(O)C(C)C=CC=C(C)C(N)=O)C(C)C1O` (centres unmarked) [Compound 7, salinifuran A], the concentration for 50% growth inhibition (GI50) with NALM6 was 26.8 µM; in the assay with K562 it was more than 30 µM; in the assay with HL-60 it was more than 30 µM; in the assay on NCI-H23 it was more than 30 µM; with PC-3 it was more than 30 µM; with ACHN it was more than 30 µM. The GI50 in the assay on RPMI-8402, in the assay with NUGC-3, in the assay with WSU-DLCL2, with HCT-15, with MDA-MB-231 and in the assay with U266 was more than 30 µM throughout. Also, the GI50 in the assay with Raji was more than 30 µM.
Take `C/C(=C/C=C/[C@H](C)[C@H](O)[C@@H](C)[C@@H](O)[C@@H](C)[C@@H]1O[C@@]2(C)CC[C@@H](O2)[C@H]1C)C(N)=O` [Compound 8, saliniketal A]: the 50% growth inhibitory concentration (GI50) with NALM6, in the assay with K562, in the assay on HL-60, in the assay with NCI-H23, with PC-3 and in the assay with ACHN was more than 30 µM throughout. For the same compound, the GI50 (in the assay on RPMI-8402; in [1]; with NUGC-3; in the assay on WSU-DLCL2; in the assay on HCT-15; in the assay on MDA-MB-231) was more than 30 µM each time. The GI50 with U266 and in the assay with Raji was more than 30 µM each time.

For the origin of these results see publication PMC10532523, “Rifamycin-Related Polyketides from a Marine-Derived Bacterium Salinispora arenicola and Their Cytotoxic Activity” (Marine Drugs, 2023).
